Patent US4146637A, “Anti-inflammatory N-acyl substituted benzamides” (priority 1976, dated 1979)
Counter-ions that a name gives are not always drawn. Like-named read-outs stand apart in the source and are kept apart here.

Columns and labels:
β-adrenergic = β-adrenergic blockage, in vitro; design: unit not given here; conditions: in vit., rat, dose 10
Experimental: (§1) As the results of Table 3 show, the compounds of this invention have both lower toxicity and different side effects than metoclopramide. Compounds of this invention have interesting pharmacological characteristics. The pharmaco dynamics of the compounds prepared in Examples 9, 43 and 48 in the form of their hydrochlorides, as well as the reference compound, metoclopramide dihydrochloride, were determined by pharmacological screening for 54 group activities. The activities which were found were confirmed by secondary tests. Additionally, the ED100 of known group-specific comparative compounds is given.

Adjuvans arthritis = Adjuvans arthritis stoppage; format: in vivo, rat; conditions: for anti-inflammatory activity in the adjuvenous arthritis test: result in words; for Adjuvans arthritis stoppage, percent inhibition of the secondary lesions on the 14th day (first value) / Adjuvans arthritis stoppage, percent inhibition of the secondary lesions on the 14th day (second value): rat, 100 mg/kg p.o.; for Adjuvans arthritis stoppage, percent inhibition of the secondary lesions on the 14th day (first value): first of two values; for Adjuvans arthritis stoppage, percent inhibition of the secondary lesions on the 14th day (second value): second of two values
Experimental: as §1

[1] = antimicrobial characteristics (summary statement); conditions: result in words
[2] = antiallergic characteristics (summary statement); conditions: result in words
[3] = acute carrageneen experiment; format: in vivo; conditions: result in words
Antiedematous test = format: in vivo; conditions: po, rat, p.o.; for minimal effective dose: read-out: Antiedematous, MED (average minimal effective dose)
Experimental: as §1

Muscle relaxant test = format: in vivo, mouse; conditions: po; for minimal effective dose at 300 mg/kg: mouse, p.o., read-out: Muscle relaxant, MED (average minimal effective dose)
Experimental: as §1

Antithrombotic test = format: in vivo, rat; conditions: po; for minimal effective dose at 100 mg/kg: rat, p.o., read-out: Antithrombotic, MED (average minimal effective dose)
Experimental: as §1

[4] = Systematic anaphylactic test; format: in vivo; conditions: po, mouse, p.o.
Experimental: as §1

Cataleptic test = format: in vivo, mouse; conditions: po; for minimal effective dose at 100 mg/kg: mouse, p.o., read-out: Cataleptic, MED (average minimal effective dose)
Experimental: as §1

Antiasthmatic test = format: in vivo; conditions: po, rat, p.o.; for minimal effective dose: read-out: Antiasthmatic, MED (average minimal effective dose)
Experimental: as §1

E. Coli = experiment: antibacterial test E. Coli, in vitro; format: cell-based; conditions: in vit.
Experimental: as §1

Amphetamine stereotype = format: in vivo, mouse; conditions: po
Experimental: as §1

Antiaggressive test = format: in vivo, mouse
Experimental: as §1

Anti-electroshock test = format: in vivo; conditions: po, mouse, p.o.
Experimental: as §1

Antiarrhytmic test = format: in vivo; conditions: mouse, i.p.
Experimental: as §1

[5] = i.p., mouse; cited from earlier work
[6] = rat, cited from earlier work

For `CCN(CC)CCNC(=O)c1cc(Cl)c(NC(=O)C(C)(C)Oc2ccc(Cl)cc2)cc1OC` [Example 9], the “β-adrenergic blockage, MEC (average effective concentration)” value (β-adrenergic) was 10.
In the case of `CCN(CC)CCNC(=O)c1cc(Cl)c(NC(=O)COc2ccc(Cl)cc2)cc1OC` [Example 40], the “anti-inflammatory activity in the adjuvenous arthritis test” value (Adjuvans arthritis) is reported as “very strong anti-inflammatory activity”, the antimicrobial characteristics [1] is reported as “weak antimicrobial” and the antiallergic characteristics [2] is reported as “antiallergic characteristics”. The “anti-inflammatory activity in the acute carrageneen experiment” value [3] was “very strong anti-inflammatory activity”.
For `CCN(CC)CCNC(=O)c1cc(Cl)c(NC(=O)COc2ccc(Cl)cc2)cc1OC` [Example 43], the minimal effective dose (Antiedematous test) was 100 mg/kg, the minimal effective dose at 300 mg/kg (Muscle relaxant test) was 300 mg/kg and the “Adjuvans arthritis stoppage, percent inhibition of the secondary lesions on the 14th day (first value)” value (Adjuvans arthritis) was 43%. The “Adjuvans arthritis stoppage, percent inhibition of the secondary lesions on the 14th day (second value)” value (Adjuvans arthritis) was 46%, the minimal effective dose at 100 mg/kg (Antithrombotic test) was 50 mg/kg and the minimal effective dose ([4]; read-out: Systematic anaphylactic, MED (average minimal effective dose)) was 100 mg/kg. It also gave a minimal effective dose at 100 mg/kg (Cataleptic test) of 100 mg/kg and a minimal effective dose (Antiasthmatic test) of 100 mg/kg.
In the case of `CCN(CC)CCNC(=O)c1cc(Cl)c(NC(=O)C(C)Oc2ccc(Cl)cc2)cc1OC` (stereo not drawn) [Example 45], the “anti-inflammatory activity in the adjuvenous arthritis test” value (Adjuvans arthritis) is reported as “very strong anti-inflammatory activity”, the antimicrobial characteristics [1] is reported as “weak antimicrobial” and the antiallergic characteristics [2] is reported as “antiallergic characteristics”. For the same compound, the “anti-inflammatory activity in the acute carrageneen experiment” value [3] was “very strong anti-inflammatory activity”.
With `CCN(CC)CCNC(=O)c1cc(Cl)c(NC(=O)C(C)Oc2ccc(Cl)cc2)cc1OC` (stereo not drawn) [Example 48] the “Adjuvans arthritis stoppage, percent inhibition of the secondary lesions on the 14th day (first value)” value (Adjuvans arthritis) was 45%, the “Adjuvans arthritis stoppage, percent inhibition of the secondary lesions on the 14th day (second value)” value (Adjuvans arthritis) was 33% and the minimal effective dose at 100 mg/kg (Antithrombotic test) was 100 mg/kg. It also gave a minimal effective dose (Antiasthmatic test) of 100 mg/kg.
`CC(=O)Oc1ccccc1C(=O)O` [acetylsalicylic acid] gave an ED100 (Antithrombotic test; Rattus norvegicus, read-out: Antithrombotic, ED100 of reference compound) of 100 mg/kg.
In the case of `CC1(C)S[C@@H]2[C@H](NC(=O)[C@H](N)c3ccccc3)C(=O)N2[C@H]1C(=O)O` [ampicillin], the “E. Coli, ED100 of reference compound” value (E. Coli) is reported as 0.5 mg/kg.
`CN(C)CCCN1c2ccccc2Sc2ccc(Cl)cc21` [chlorpromazine] showed an ED100 (Amphetamine stereotype; Mus musculus, read-out: Amphetamine stereotype, ED100 of reference compound) of 5 mg/kg and an ED100 (Antiaggressive test; Mus musculus, po, read-out: Antiaggressive, ED100 of reference compound) of 5 mg/kg.
In the case of `O=C(O)c1cc(=O)c2c(OCC(O)COc3cccc4oc(C(=O)O)cc(=O)c34)cccc2o1` [chromoglycine-sodium], the ED100 (Antiasthmatic test; read-out: Antiasthmatic, ED100 of reference compound) is reported as 60 mg/kg.
In the case of `O=C1NC(=O)C(c2ccccc2)(c2ccccc2)N1` [diphenylhydomtoin], the ED100 (Anti-electroshock test; read-out: Anti-electroshock, ED100 of reference compound) is reported as 10 mg/kg.
`CCN(CC)CCNC(=O)c1cc(Cl)c(N)cc1OC` [metoclopramide dihydrochloride] gave a minimal effective dose at 25 mg/kg (Amphetamine stereotype; mouse, p.o., dose 25 mg/kg, read-out: Amphetamine stereotype, MED (average minimal effective dose)) of 25 mg/kg, a minimal effective dose (Antiarrhytmic test; ip, read-out: Antiarrhytmic, MED (average minimal effective dose)) of 100 mg/kg and a minimal effective dose (Antiedematous test) of 50 mg/kg. The minimal effective dose at 300 mg/kg (Muscle relaxant test) was 100 mg/kg, the minimal effective dose at 100 mg/kg (Cataleptic test) was 100 mg/kg and the minimal effective dose (Anti-electroshock test; read-out: Anti-electroshock, MED (average minimal effective dose)) was 100 mg/kg. For the same compound, the Antiaggressive (Antiaggressive test; mouse, p.o., dose 50 mg/kg, MED not given) was 50 mg/kg.
For `CCN(CC)CCNC(=O)c1cc(Cl)c(N)cc1OC` [metoclopramide], the LD50 [5] is listed as 242 mg/kg, the LD50 ([6]; i.p.) is listed as 180 mg/kg and the LD50 ([6]; oral) is listed as 235 mg/kg.
`CCC1(c2ccccc2)C(=O)NC(=O)NC1=O` [phenobarbital] showed an ED100 (Muscle relaxant test; Mus musculus, read-out: Muscle relaxant, ED100 of reference compound) of 100 mg/kg and an ED100 (Cataleptic test; Mus musculus, read-out: Cataleptic, ED100 of reference compound) of 100 mg/kg.
With `CCCCC1C(=O)N(c2ccccc2)N(c2ccccc2)C1=O` [phenybutazone] the ED100 (Antiedematous test; read-out: Antiedematous, ED100 of reference compound) was 50 mg/kg.
Work on `CN(C)CCOc1ccccc1Cc1ccccc1` [phenyltoloxamine] yielded an ED100 ([4]; read-out: Systematic anaphylactic, ED100 of reference compound) of 50 mg/kg.
In the case of guanidine, the “Antiarrhytmic, ED100 of reference compound” value (Antiarrhytmic test) is reported as 100 mg/kg.
